{
  "source": "patent US12250948B2",
  "about": "“Methods for the control of arthropods using near-ideal gas phase hydrogen peroxide” (Synexis LLC, priority 2013, dated 2025)",
  "key": {"Brown Dog Tick": {"test_system": "Brown Dog Tick", "assay": "Laboratory chamber test of PHPG, knockdown and mortality", "format": "in vivo", "conditions": "PHPG 0.6 ppm", "experimental": "(§1) The effects of Purified Hydrogen Peroxide Gas (PHPG) on selected arthropod species is performed to determine the efficacy on controlling an arthropod using the indirect dispersion of PHPG in a space. In these experiments, the knockdown and mortality rates in mosquitoes, bed bugs, termites, ants, moths, house flies, and spiders is assessed.\n(§2) Black wood ants, house flies (adult and pupae), large saturniid moths, termites (soldier and living), and cellar spiders are obtained from Carolina Supplies and shipped overnight. All organisms are fed prior to shipping from Carolina Supplies. Bed bugs and mosquitoes are sourced locally due to government shipping restrictions. The test samples are stored in a cabinet at ambient temperature and humidity until use in the study. The samples are labeled and color-coded for easy identification. In certain experiments, specimens of wild caught arthropods are used in the controlled experiments, including for example Brazilian cockroaches.\n(§3) All testing is conducted in a sealed, Static Dissipative PVC chamber, Terra Universal (Fullerton, CA) Model 3305-10F: 59 inches W×24 inches D×25 inches H. With additional airlock Terra Universal Model 1680-81B 11.5 inches W×10 inches D×10.5 inches 1-1. Arthropods are placed inside transfer containers (pint size paper containers). The top and bottom diameters of these containers are 3.75 and 2.87 inches respectively with a height of 3.5 inches. All arthropods are released once the airlock is sealed. Arthropods are allowed to recover following PHPG exposure and observed in 8 oz glass Pyrex@(Tewksbury, MA) containers with sealed glass lids.\nThree replicates of ten of each arthropod are subjected to PHPG. […] If at 24 hours mortality is less 90%, additional readings are taken following 48 hours of PHPG exposure. […] Time frames are recorded for each replicate. […]\nIf all ten arthropods are recorded as knocked down or deceased during any observation before 15 minutes have elapsed, subsequent observations are not made. […] All dead arthropods are confirmed by probing or agitation to make sure that they are unable to move (any that show movement visible to the naked eye are recorded as moribund). Arthropods that can crawl or right themselves when placed on their backs are recorded as being alive.\n(§4) After the knockdown counts are complete, the arthropods are maintained in the laboratory at ambient temperature and humidity conditions with a normal 8:16 light:dark cycle for 24 hours. Additional mortality readings are taken at 48 hours if less than 90% mortality is recorded at 24 hours. A 48 hour reading depends upon control mortality remaining less than 10%. Temperature and humidity are recorded in the treatment area, and in the laboratory where the arthropods are subsequently held for the duration of the test."}, "Bedbugs": {"test_system": "Bedbugs", "conditions": "PHPG 0.6 ppm", "experimental": "as §1, §2, §3\n(§5) Three replicates of ten of each arthropod are subjected to PHPG. An additional three replicates are subjected to a non PHPG producing device and serve as untreated controls. The arthropods are observed for knockdown at 0.5, 1, 2, 3, 4, 5, and 15 minutes. Mortality counts are taken after 24 hours of PHPG exposure. If at 24 hours mortality is less 90%, additional readings are taken following 48 hours of PHPG exposure. The test samples are exposed to the test environment containing PHPG until a 90% knockdown is achieved. The test samples are provided PHPG emitted from a PHPG producing device in the center of the test chamber. Time frames are recorded for each replicate. Just prior to treatment the arthropods are transferred into the transfer containers. Forty eight hours after treatment, they are removed from the treatment chamber and transferred to recovery containers and covered with screened lids for observation.\n(§6) Knockdown occurs when an arthropod cannot right itself when placed on its back but is still able to move at least one body part. The arthropods are then transferred from the treatment chamber to recovery containers. Another knockdown/mortality observation is made 15 minutes later.\n(§7) If all ten arthropods are recorded as knocked down or deceased during any observation before 15 minutes have elapsed, subsequent observations are not made. Mortality counts are made at 24 hours, and 48 hours or sooner (if applicable). All dead arthropods are confirmed by probing or agitation to make sure that they are unable to move (any that show movement visible to the naked eye are recorded as moribund). Arthropods that can crawl or right themselves when placed on their backs are recorded as being alive.\nas §4"}, "Cockroaches": {"test_system": "Cockroaches", "experimental": "as §1, §2, §3, §5, §6, §7, §4"}, "House Fly Pupae": {"test_system": "House Fly Pupae", "conditions": "PHPG 0.5 ppm", "experimental": "as §1, §2, §3, §5, §6, §7, §4"}, "Wolf Spiders": {"test_system": "Wolf Spiders", "conditions": "PHPG 1.0 ppm", "experimental": "as §1, §2, §3, §5, §6, §7, §4"}, "Deer Ticks": {"test_system": "Deer Ticks", "conditions": "PHPG 0.6 ppm", "experimental": "as §1, §2, §3, §5, §6, §7, §4"}, "Termites": {"test_system": "Termites", "experimental": "as §1, §2, §3, §5, §6, §7, §4"}, "Tarantula": {"test_system": "Tarantula", "experimental": "as §1, §2, §3, §5, §6, §7, §4"}, "Carpenter Ants": {"test_system": "Carpenter Ants", "conditions": "PHPG 1.0 ppm", "experimental": "as §1, §2, §3, §5, §6, §7, §4"}, "Cellar Spiders": {"test_system": "Cellar Spiders", "conditions": "PHPG 1.0 ppm", "experimental": "as §1, §2, §3, §5, §6, §7, §4"}, "Fruit Flies": {"test_system": "Fruit Flies", "conditions": "PHPG 0.3 ppm, exposure 72 hours", "experimental": "as §1, §2, §3, §5, §6, §7, §4"}, "Yellow Jackets and Nest": {"test_system": "Yellow Jackets and Nest", "conditions": "PHPG 0.3 ppm"}, "Crickets": {"test_system": "Crickets", "conditions": "PHPG 0.4 ppm"}, "Mosquitoes": {"test_system": "Mosquitoes", "conditions": "PHPG 0.2 ppm"}, "[1]": {"test_system": "arthropods including crickets, ants, spiders, and house flies", "assay": "Real world test of PHPG in 1400 sq ft Pool House", "conditions": "after 27 hours", "source_text": "All PHPG concentration readings take place with Draeger products. A Pac III, Polytron 7000 or Draeger Tubes are utilized in all tests, generally according to manufacturer's instructions. […] Most commonly, Draeger Tubes are used after clipping on both ends and placement in a ACCURO™ Pump. Per manufacturer instructions, the tubes are pumped 100 times and the level of PHPG determined by observing the color change in the crystals.\nTwo PHPG generating devices were placed in the space for an initial cleansing and to establish levels."}, "Stink Bugs": {"test_system": "Stink Bugs", "conditions": "PHPG 0.3 ppm"}, "House Flies": {"test_system": "House Flies", "conditions": "PHPG 0.2 ppm"}},
  "note": "Read-outs that look alike come from different tables or passages of the source.",
  "data": [
    {"compound": "OO", "note": "[PHPG, Purified Hydrogen Peroxide Gas]", "values": [
      {"measurement": "Attempt to Flee?", "setting": "Brown Dog Tick", "result": "Yes"},
      {"measurement": "Percent Killed", "setting": "Brown Dog Tick; exposure 3 hours", "result": 70, "unit": "%"},
      {"measurement": "Percent Killed", "setting": "Brown Dog Tick; exposure 60 hours", "result": 100, "unit": "%"},
      {"measurement": "Observations", "setting": "Brown Dog Tick; until they succumbed", "result": "All ticks searched for an exit"},
      {"measurement": "Observations: nymphs", "setting": "Bedbugs; Bedbug nymphs hatched from immature eggs", "result": "Nymphs died in seconds."},
      {"measurement": "Observations: all bedbugs reacted within", "setting": "Bedbugs; Bedbugs", "result": "fifteen seconds."},
      {"measurement": "Observations: final outcome", "setting": "Bedbugs; Bedbugs", "result": "All died over time."},
      {"measurement": "Percent Killed", "setting": "Bedbugs; Bedbugs, exposure 3 hours", "result": 50, "unit": "%"},
      {"measurement": "Percent Killed", "setting": "Bedbugs; Bedbugs, exposure 60 hours", "result": 100, "unit": "%"},
      {"measurement": "Attempt to Flee?", "setting": "Bedbugs; Bedbugs, cell continues 'Went Dormant'", "result": "No,"},
      {"measurement": "Attempt to Flee?", "setting": "Cockroaches; Cockroaches, PHPG 0.6 ppm", "result": "No"},
      {"measurement": "Percent Killed", "setting": "Cockroaches; Cockroaches, PHPG 0.6 ppm, exposure 24 Hours", "result": 0, "unit": "%"},
      {"measurement": "Observations", "setting": "Cockroaches; Cockroaches, low level of PHPG (0.6 ppm), did not react to the gas", "result": "Appeared resistant at low"},
      {"measurement": "Resistance to PHPG", "setting": "Cockroaches; adult cockroaches, PHPG levels up to 0.6 ppm for 24 hours", "result": "resistant"},
      {"measurement": "Observations: hatching", "setting": "House Fly Pupae; 100 pupae expected to hatch within 3 days, within one week", "result": "within 3 days. Did not hatch"},
      {"measurement": "Percent Killed", "setting": "House Fly Pupae; House Fly Pupae, exposure 7 days", "result": 100, "unit": "%"},
      {"measurement": "Attempt to Flee?", "setting": "Wolf Spiders", "result": "Yes"},
      {"measurement": "Observations", "setting": "Wolf Spiders", "result": "Very susceptible; and"},
      {"measurement": "Percent Killed", "setting": "Wolf Spiders; exposure 1 hour", "result": 100, "unit": "%"},
      {"measurement": "Attempt to Flee?", "setting": "Deer Ticks", "result": "Yes"},
      {"measurement": "Percent Killed", "setting": "Deer Ticks; exposure 3 hours", "result": 70, "unit": "%"},
      {"measurement": "Percent Killed", "setting": "Deer Ticks; exposure 60 hours", "result": 100, "unit": "%"},
      {"measurement": "Observations", "setting": "Deer Ticks; until they succumbed", "result": "All ticks searched for an exit"},
      {"measurement": "Attempt to Flee?", "setting": "Termites; PHPG 0.1 ppm, cell continues 'Then went dormant'", "result": "Yes,"},
      {"measurement": "Percent Killed", "setting": "Termites; PHPG 0.1 ppm, exposure 24 hours", "result": 100, "unit": "%"},
      {"measurement": "Observations", "setting": "Termites; very low exposure (PHPG 0.1 ppm), sought shelter", "result": "went dormant. Larger"},
      {"measurement": "Attempt to Flee?", "setting": "Tarantula; Tarantula, PHPG 0.6 ppm", "result": "No"},
      {"measurement": "Percent Killed", "setting": "Tarantula; Tarantula, PHPG 0.6 ppm, exposure 24 hours", "result": 0, "unit": "%"},
      {"measurement": "Observations", "setting": "Tarantula; Tarantula, PHPG 0.6 ppm, did not react to the gas", "result": "Appeared resistant. Did not"},
      {"measurement": "Resistance to PHPG", "setting": "Tarantula; tarantula spiders, PHPG levels up to 0.6 ppm for 24 hours", "result": "resistant"},
      {"measurement": "Attempt to Flee?", "setting": "Carpenter Ants", "result": "Yes"},
      {"measurement": "Observations: order of death", "setting": "Carpenter Ants", "result": "exit. Smallest ants died first."},
      {"measurement": "Percent Killed", "setting": "Carpenter Ants; exposure 24 Hours", "result": 15, "unit": "%"},
      {"measurement": "Observations: ants collected in areas where fresh air was seeping into the chamber and remained inactive", "setting": "Carpenter Ants; when unable to flee", "result": "When unable 50% collected"},
      {"measurement": "Attempt to Flee?", "setting": "Cellar Spiders", "result": "Yes"},
      {"measurement": "Observations: smallest spiders died within", "setting": "Cellar Spiders", "result": "one hour. Larger spiders"},
      {"measurement": "Percent Killed", "setting": "Cellar Spiders; exposure 24 Hours", "result": 33, "unit": "%"},
      {"measurement": "Percent Killed", "setting": "Fruit Flies", "result": 100, "unit": "%"},
      {"measurement": "Observations: unhatched yellow jackets in the nest", "setting": "Yellow Jackets and Nest; 1 day, nest was hatching", "result": "jackets in the nest died."},
      {"measurement": "Percent Killed", "setting": "Yellow Jackets and Nest; Yellow Jackets and Nest, exposure 1 day", "result": 100, "unit": "%"},
      {"measurement": "Attempt to Flee?", "setting": "Yellow Jackets and Nest; Yellow Jackets", "result": "Yes"},
      {"measurement": "Percent Killed", "setting": "Crickets; exposure 21 hours, garden house", "result": 100, "unit": "%"},
      {"measurement": "Attempt to Flee?", "setting": "Crickets; tried to exit through HVAC vents", "result": "Yes"},
      {"measurement": "Percent Killed", "setting": "Lice and nits; Lice and nits, PHPG 0.2 ppm, exposure 2 days", "result": 100, "unit": "%"},
      {"measurement": "Observations: bedding and other exposed items", "setting": "Lice and nits; Lice and nits, PHPG 0.2 ppm, within two days", "result": "items fully treated within two"},
      {"measurement": "Elimination of all signs of lice", "setting": "Lice and nits; child subject, from initiation of PHPG treatment", "result": "lice free within two days"},
      {"measurement": "Attempt to Flee?", "setting": "Mosquitoes", "result": "Yes"},
      {"measurement": "Percent Killed", "setting": "Mosquitoes; exposure 2 hours", "result": 100, "unit": "%"},
      {"measurement": "Live insects observed", "setting": "[1]; PHPG 0.4 ppm", "result": "No live insects were observed"},
      {"measurement": "Number of arthropods confirmed dead", "setting": "[1]; two PHPG generating devices, PHPG 0.4 ppm at 27 hours", "result": 109},
      {"measurement": "Attempt to Flee?", "setting": "Stink Bugs", "result": "Yes"},
      {"measurement": "Percent Killed", "setting": "Stink Bugs; exposure 24 hours", "result": 100, "unit": "%"},
      {"measurement": "Attempt to Flee?", "setting": "House Flies", "result": "Yes"},
      {"measurement": "Observations: final outcome", "setting": "House Flies", "result": "All died within day"},
      {"measurement": "Observations: first deaths within", "setting": "House Flies", "result": "one hour"},
      {"measurement": "Percent Killed", "setting": "House Flies; exposure 24 hours", "result": 100, "unit": "%"}
    ]}
  ]
}
